The values below come from PMC6155603, “Synthesis and Preliminary Biological Evaluation of Indol-3-yl-oxoacetamides as Potent Cannabinoid Receptor Type 2 Ligands” (Molecules : A Journal of Synthetic Chemistry and Natural …, 2017).

Each structure is given as a SMILES string.

One test has as its target T1, human CB2 (Homo sapiens, UniProt P34972).
T1 construct: host or cells: CHO cells (stably transfected), membrane homogenates
Description: radioligand inhibition binding assay, [^3H]WIN55.212-2, membranes of CHO cells stably transfected with human CB2. The procedure:
Non-specific binding was determined using 10 µM WIN55.212-2. The individual IC50 values were determined by non-linear curve fitting using GraphPad Prism software (version 3.0, GraphPhad, San Diego, CA, USA), and the corresponding Ki values calculated using the Cheng–Prusoff equation [44]. […] Additionally, the binding affinities towards the CB1 receptor were investigated for compounds 6 and 8 by using [^3H]CP55.40 as competitive radioligand.

In a further test the target is human CB1 receptors (Homo sapiens, UniProt P21554). The test can be described thus: CB1 binding assay with [^3H]CP55.40 as competitive radioligand. The settings on record: no displacement of radioligand up to this concentration. The procedure: Non-specific binding was determined using 10 µM WIN55.212-2. The individual IC50 values were determined by non-linear curve fitting using GraphPad Prism software (version 3.0, GraphPhad, San Diego, CA, USA), and the corresponding Ki values calculated using the Cheng–Prusoff equation [44]. […] Additionally, the binding affinities towards the CB1 receptor were investigated for compounds 6 and 8 by using [^3H]CP55.40 as competitive radioligand. None of the two derivatives could displace [^3H]CP55.40 from the human CB1 receptors up to a concentration of 100 µM. Thus, within this series of fluoro-substituted compounds, the N-alkyl chain of compound 8 is most suitable to obtain high affinity binding at the CB2 receptor, combined with an excellent selectivity against the CB1 receptor subtype.
Sequence of human CB1 receptors (P21554 whole entry): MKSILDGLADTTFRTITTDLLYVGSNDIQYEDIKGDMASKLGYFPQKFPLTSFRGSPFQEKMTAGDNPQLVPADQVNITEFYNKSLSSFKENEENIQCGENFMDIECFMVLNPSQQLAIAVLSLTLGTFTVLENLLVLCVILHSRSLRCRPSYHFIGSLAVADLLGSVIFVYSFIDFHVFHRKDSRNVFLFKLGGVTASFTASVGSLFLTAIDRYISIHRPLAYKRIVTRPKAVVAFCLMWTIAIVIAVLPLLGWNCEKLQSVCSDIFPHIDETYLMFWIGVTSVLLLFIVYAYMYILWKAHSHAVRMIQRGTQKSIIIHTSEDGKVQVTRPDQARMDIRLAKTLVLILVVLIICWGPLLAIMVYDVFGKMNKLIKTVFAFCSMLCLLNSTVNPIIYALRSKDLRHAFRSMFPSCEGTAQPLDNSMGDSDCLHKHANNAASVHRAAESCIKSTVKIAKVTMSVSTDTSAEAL

In another test the target is CB1. The note with it: reported value of lead molecule; cited from earlier work.
Another test addresses CB2. The note with it: reported value of lead molecule; cited from earlier work.

T1 sequence (P34972 whole entry): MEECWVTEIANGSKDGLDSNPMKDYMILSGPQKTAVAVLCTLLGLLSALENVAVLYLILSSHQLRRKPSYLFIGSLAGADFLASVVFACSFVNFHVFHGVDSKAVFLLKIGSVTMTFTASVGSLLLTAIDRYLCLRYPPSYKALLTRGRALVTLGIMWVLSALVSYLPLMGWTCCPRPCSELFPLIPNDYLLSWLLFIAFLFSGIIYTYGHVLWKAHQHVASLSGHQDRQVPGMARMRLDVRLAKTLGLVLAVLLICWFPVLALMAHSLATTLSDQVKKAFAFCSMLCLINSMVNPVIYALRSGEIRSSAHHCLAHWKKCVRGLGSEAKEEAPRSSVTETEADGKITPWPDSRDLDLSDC

The Ki is the dissociation constant of the complex between target and ligand, obtained from inhibition or displacement. `COCCn1cc(C(=O)C(=O)NC23CC4CC(CC(C4)C2)C3)c2cc(-c3ccco3)ccc21` [compound 7, N-(Adamantan-1-yl)-2-(5-(furan-2-yl)-1-(2-methoxyethyl)-1H-indol-3-yl)-2-oxoacetamide] had an inhibition constant (Ki) at human CB2 of 16.1 nM.
Regarding `O=C(NC12CC3CC(CC(C3)C1)C2)C(=O)c1cn(CCOCCOCCF)c2ccc(-c3ccco3)cc12` [compound 6, N-(Adamantan-1-yl)-2-(1-(2-(2-(2-fluoroethoxy)ethoxy)ethyl)-5-(furan-2-yl)-1H-indol-3-yl)-2-oxoacetamide], at human CB1 receptors, the “concentration up to which [^3H]CP55.40 was not displaced from human CB1 receptors” value is listed as > 100 µM. This compound yielded an inhibitory constant (Ki) on human CB2 of 27.3 nM.
In the case of `CCCCCn1cc(C(=O)C(=O)NC23CC4CC(CC(C4)C2)C3)c2cc(-c3ccco3)ccc21` [compound 5, N-(Adamantan-1-yl)-2-(5-(furan-2-yl)-1-pentyl-1H-indol-3-yl)-2-oxoacetamide], the Ki on CB1 is 345 nM; at CB2, 0.37 nM; on human CB2, 8.5 nM.
Regarding `O=C(NC12CC3CC(CC(C3)C1)C2)C(=O)c1cn(CCOCCF)c2ccc(-c3ccco3)cc12` [compound 8, N-(Adamantan-1-yl)-2-(1-(2-(2-fluoroethoxy)ethyl)-5-(furan-2-yl)-1H-indol-3-yl)-2-oxoacetamide], at human CB1 receptors, the “concentration up to which [^3H]CP55.40 was not displaced from human CB1 receptors” value is > 100 µM. At human CB2, the affinity, expressed as Ki, was 6.2 nM.
